Results published in PubChem BioAssay (NCI).
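Five concentrations, 48 hours, 96-well plates. Here, GI50 denotes the concentration required for 50% inhibition of growth. TGI: total growth inhibition.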

Tests used:
Test in all cases: NCI tumour cell line growth inhibition, 48 h
MOLT-4 leukemia = tested on: MOLT-4 leukemia
OVCAR-3 ovarian = tested on: OVCAR-3 ovarian
786-0 renal = tested on: 786-0 renal
NCI-H522 lung = tested on: NCI-H522 lung
U251 CNS = tested on: U251 CNS
KM12 colon = tested on: KM12 colon
COLO 205 colon = tested on: COLO 205 colon
CAKI-1 renal = tested on: CAKI-1 renal
LOX IMVI melanoma = tested on: LOX IMVI melanoma
RPMI-8226 leukemia = tested on: RPMI-8226 leukemia

Compound	TGI (MOLT-4 leukemia) [µM]	TGI (OVCAR-3 ovarian) [µM]	TGI (786-0 renal) [µM]	TGI (NCI-H522 lung) [µM]	TGI (U251 CNS) [µM]	TGI (KM12 colon) [µM]	TGI (COLO 205 colon) [µM]	TGI (CAKI-1 renal) [µM]	TGI (LOX IMVI melanoma) [µM]	TGI (RPMI-8226 leukemia) [µM]	GI50 (MOLT-4 leukemia) [nM]	GI50 (LOX IMVI melanoma) [nM]	GI50 (OVCAR-3 ovarian) [nM]	GI50 (786-0 renal) [nM]	GI50 (NCI-H522 lung) [nM]	GI50 (U251 CNS) [nM]	GI50 (KM12 colon) [nM]	GI50 (COLO 205 colon) [nM]	GI50 (CAKI-1 renal) [nM]	GI50 (RPMI-8226 leukemia) [nM]
Cc1cccc(C)c1N1C(=O)C(=O)C(c2nc3ccccc3s2)/C(=N/NC(=O)NN)C1=O (stereo not drawn)	> 100	> 100	> 100	> 100	> 100	> 100	> 100	> 100												
CN1c2ccccc2SC2C(c3ccccc3)=NOC21 (stereo not drawn)	> 100	> 100	> 100	64.1	> 100	> 100	> 100	> 100												
CC(C)(C)OC(=O)NC1CCCC1=O (stereo not drawn)	> 100	> 100	> 100	> 100	> 100	> 100		> 100	> 100											
O=C1CNS(=O)(=O)N1	> 100	> 100	> 100	> 100		> 100	> 100	> 100		> 100										
[2H]c1nc(=Nc2cc(NC(=O)C=C)c(N(C)CCN(C)C)cc2OC)[nH]c(-c2cn(C([2H])([2H])[2H])c3ccccc23)c1[2H]	2.86	2.83	2.68	2.24	3.6	11.5	3.06	1.89	3.17		1140	1650	1180	1340	265	1760	3150	1620	503	
O=C(/C=C/c1cccc(O)c1)c1cccc(-n2cc(-c3ccc4ccccc4c3)[nH]c2=O)c1	5.24	2.78	3.13	2.9	2.28	2.45	4.65		2.08	6.91	1270	858	1330	1740	1290	1090	1210	2090		1670
CC1=NN(C(=O)c2ccncc2)C(=O)C1N=Nc1ccc(F)cc1 (stereo not drawn)		> 100	> 100	> 100			> 100	> 100	> 100	> 100										
CN(C)C(=S)Nc1nnc(Nc2ccccc2)s1	> 100	> 100	> 100	> 100	> 100		> 100	> 100	> 100											
COc1ccc2c(NCCCCCCNc3c4ccccc4nc4cc(OC)ccc34)c3ccccc3nc2c1		1.76	1.3	0.34	1.47	2.03	0.189	3.39		0.717										
Cc1c(C(=O)/C=C/c2ccccc2[N+](=O)[O-])[n+](=O)c2ccccc2n1[O-]	29.3	13.3	17.8	19.1	28.5	22	13.7	15.7		14.7										
CC(C)(C)c1ccc(OC2CCO2)cc1 (stereo not drawn)	72.3	> 100	63.3	52.5	35.3	70.2	70.5	> 100		47										
O=[N+]([O-])c1ccc(-c2cc3c(Nc4ccc(Cl)c(C(F)(F)F)c4)ncnc3s2)cc1		> 100	> 20.6	5.13	> 87.8	> 100	3.35	8.32	> 100	2.81		1620	605	1100	566	1380	1420	1790	2220	555
N#CC(C#N)=c1c2nsnc2c(=C(C#N)C#N)c2nsnc12		8.34	17.9	3.51	3.19	3.85	4.83	3.53	3											
O=S1CSSC1	43.1	58.9	47	25.9	37.5	55.8	32	77.4	20											
N.N.N.N.N.O=S(=O)([O-])S(=O)(=O)[O-].[Co+3]	> 100	> 100	> 100	> 100	> 100	> 100	> 100		> 100	> 100	> 100000	> 100000	> 100000	> 100000	> 100000	> 100000	> 100000	> 100000		> 100000
Cc1c2ccncc2c(C)c2c1[nH]c1ccc(O)c(OCC(F)(F)F)c12	6.04	19	5.78	15.9	10.7		22.3	19.6	3.27	5.95										
c1ccc(-c2nc(N3CCCNCC3)c3nc(-c4ccccc4)oc3n2)cc1		3.21	3.45		3.31	3.38	3.38	3.02					1750	1730		1740	1830	1600	1520	
CC(=O)n1c(=O)c2cc3c(=O)n(-c4cccc(C#N)c4)c(=O)c3cc2c1=O		> 100	> 100	> 100	> 100	> 100	> 100	> 100	> 100											
O=C(CC1(O)C(=O)Nc2c(Cl)ccc(Cl)c21)c1ccc(Cl)cc1Cl (stereo not drawn)		30.9	27.8		21.9	30.9	31.7	64.2	28.3	43.7										
Cc1cccc(C)c1N1C(=O)C(=O)C(c2nc3ccccc3s2)C(=Nc2cccc3c(=O)[nH][nH]c(=O)c23)C1=O (stereo not drawn)	> 100	> 100	> 100		> 100	> 100	> 100	> 100	> 100	> 100										
